Data from PubChem BioAssay AID1996.
Converted amounts (≈) assume the structure as drawn. Non-standard residues stand in square brackets, D forms with d. Residues, ends and D or L forms follow the SMILES beside them. *: point of attachment. Tic = O=C(O)[C@@H]1Cc2ccccc2CN1; NHPr = CCCN*

Details: buffer; pH 7.4; 200.0 µM

Structure (SMILES)	solubility kinetic [µg/mL]
CC1CN=C(NCc2ccccc2Cl)S1 (stereo unspecified)	> 36.1
COc1cccc(C(O)c2cnc(C(C)C)n2C)c1 (stereo unspecified)	> 39.1
O=C(NCCc1ccncc1)Nc1ccc(F)cc1	> 38.9
CC(C)(C)OC(=O)NCCCCCO	> 30.5
O=C(Cc1ccc([N+](=O)[O-])cc1)Nc1cccnc1	> 38.6
N/C(=N\OC(=O)/C=C/c1ccccc1)c1ccncc1	34.6 (≈ 129 µM)
Cc1nc2ccccc2cc1C(=O)NCc1ccccc1	> 41.5
COc1ccc(C(=O)COc2ccc(C)cc2NC(C)=O)cc1	36.7 (≈ 117 µM)
CC(OC(=O)c1ccco1)C(=O)Nc1ccc(Cl)cn1 (stereo unspecified)	> 44.2
COc1ccc2nc(Nc3nc(-c4ccncc4)cs3)sc2c1	0.8 (≈ 2.35 µM)
CCC(Sc1nc2ncnc(N)c2[nH]1)C(=O)O (stereo unspecified)	34.1 (≈ 135 µM)
c1ccc(Nc2cccc3ccccc23)cc1	1.5 (≈ 6.84 µM)
O=C(NCCSCc1ccco1)c1ccc(=O)[nH]c1	38.2 (≈ 137 µM)
Nc1[nH]c(=O)ncc1F	> 19.4
COc1ccc2[nH]cc(CCNC(=S)NCCc3ccccc3)c2c1	26.3 (≈ 74.4 µM)
CN(C)CCCNC(=S)Nc1ccc(Oc2ccccc2)cc1	43.1 (≈ 131 µM)
O=C(O)CCCCCNCc1c(Cl)cccc1Cl	41.6 (≈ 143 µM)
COC(=O)Cc1nc(NC(=O)c2cccs2)sc1C	> 44.5

Structure (SMILES)	solubility kinetic [µg/mL]
N#CC1=C(N)Oc2c(ccc3cccnc23)C1c1ccncc1 (stereo unspecified)	40.8 (≈ 136 µM)
O=C(/C=C/c1ccco1)NC(=S)Nc1ccccc1	17.2 (≈ 63.2 µM)
O=C(Nc1nc(-c2ccccn2)cs1)Nc1ccc(F)cc1F	2.4 (≈ 7.22 µM)
Nc1nc(-c2cc(-c3ccccc3)no2)cs1	4.4 (≈ 18.1 µM)
O=C(COc1ccc(Cl)cc1)Nc1ncc([N+](=O)[O-])s1	3.2 (≈ 10.2 µM)
CCC(CC)C(=O)c1c[nH]c(C(=O)NCc2ccccc2)c1	2.2 (≈ 7.37 µM)
CN(C(=O)c1cccc(NC(=O)c2ccco2)c1)c1ccccc1	> 48.1
COc1cccc(OCCCn2ccnc2)c1.Cl	33.1
Cn1cnc([N+](=O)[O-])c1C(=O)Nc1cccc([N+](=O)[O-])c1	11.2 (≈ 38.5 µM)
O=C(Cc1cccs1)NCc1cc(Cl)cc(Cl)c1	34.3 (≈ 114 µM)
COc1ccc(C(=O)CCC(=O)NCCc2ccccc2F)cc1	16.9 (≈ 51.3 µM)
O=[N+]([O-])c1ccccc1Nc1ccccc1	1.1 (≈ 5.13 µM)
O=C(COC(=O)c1ccc(OC(F)(F)F)cc1)Nc1ncccn1	10.1 (≈ 29.6 µM)
CCOc1ccc(CNC(c2ccccc2)c2ccccc2)cc1.Cl	< 0.8
COc1ccc(C)cc1NC1=NC(C)(C)CS1	36.1 (≈ 144 µM)
COc1cc(/C=C(\C#N)C(=O)Nc2ccccn2)ccc1O	5.9 (≈ 20 µM)
COc1ccc(Cl)cc1NC(=O)Nc1ccccc1SC	< 0.3
CCOc1ccc(NC(=O)CNC(=O)c2ccco2)cc1	> 43.2

Further lines, results first:

solubility kinetic [µg/mL]	Structure (SMILES)
> 48.8	COC(=O)CC1C(=O)NCCN1C(=S)Nc1ccc(F)cc1 (stereo unspecified)
> 49.4	COCC(=O)N1CCCC(C(=O)c2ccc(C(F)(F)F)cc2)C1 (stereo unspecified)
> 59.3	CC(C)NC(=O)N1CCN(c2ccncc2S(=O)(=O)N2CCCCC2)CC1
> 51.6	Cc1[nH]c(=O)[nH]c(=O)c1S(=O)(=O)Nc1ccc(F)c([N+](=O)[O-])c1
> 55.9	CCc1sc(NC(=O)CN2CCC(C(N)=O)CC2)nc1-c1ccccc1
> 35.4	Cc1ccccc1Cn1c(C)nc2ccccc21
1.4 (≈ 4.17 µM)	O=c1[nH]cccc1-c1nc2ccccc2n1Cc1cccc(Cl)c1
5.2 (≈ 21.4 µM)	CNC(=O)c1cc2c(s1)-c1ccccc1CC2
> 60	CC(=O)N1CCN(C(=O)c2ccc(Cl)c(S(=O)(=O)N3CCCC3)c2)CC1
17.3 (≈ 48.4 µM)	Cc1ccccc1OCC(=O)OCC(=O)NCc1ccc2c(c1)OCO2
29.2 (≈ 104 µM)	CCCOc1ccc(Cl)cc1/C=C1/C(=O)ON=C1C
43.8 (≈ 131 µM)	Cc1nc(C)c(C(=O)NCCC(c2ccccc2)c2ccccc2)o1
8.2 (≈ 21.3 µM)	CC(NC(=O)COC(=O)c1ccc(N2CCCC2=O)cc1)c1ccc(F)cc1 (stereo unspecified)
1.1 (≈ 3.25 µM)	c1cncc(-c2nc(N3CCOCC3)c3c4c(sc3n2)CCC4)c1
< 0.3	Cc1ccc(NC(=O)Nc2ccc3c(c2)CCC3)c(C)c1
19.9 (≈ 88.7 µM)	Cc1csc(NC(=O)C2CCCCC2)n1
52.9 (≈ 136 µM)	CC(C)(C)NC(=O)Cn1c(SCC(=O)NC2CCCC2)nc2ccccc21
1.1 (≈ 3.29 µM)	CC(C)(C)NC(=O)CN1C(=O)/C(=C/c2ccccc2)SC1=S
> 49.3	COc1cccc(NC(=O)CCN2C(=O)C3CC=CCC3C2=O)c1 (stereo unspecified)
> 39.8	Cc1c(C(=O)NN2CCOCC2)cccc1[N+](=O)[O-]
4.9 (≈ 17.9 µM)	S=C1Cc2ccccc2C(c2ccc(Cl)cc2)N1 (stereo unspecified)
> 50.2	CC1CCCN(S(=O)(=O)c2cc3c4c(c2)CCN4C(=O)CC3)C1 (stereo unspecified)
44 (≈ 134 µM)	CC1CCCN(Cc2c(O)ccc3c4c(c(=O)oc23)CCCC4)C1 (stereo unspecified)
3.6 (≈ 11.6 µM)	Cc1cccc(Cn2c(C)nc3ccc([N+](=O)[O-])cc3c2=O)c1
1.9 (≈ 5.43 µM)	CC(C)=C1SC(N2CCN(c3ccc(C)c(Cl)c3)CC2)=NC1=O

solubility kinetic [µg/mL]	Structure (SMILES)
36.7 (≈ 126 µM)	Cc1oc(-c2ccccc2)cc1C(=O)NCc1ccncc1
36.4 (≈ 135 µM)	O=C1CCCc2ccccc2N1Cc1cccc(F)c1
> 50.5	O=C(COC(=O)Cc1cccc(F)c1)NC(=O)NC1CCCCC1
> 44	N#Cc1ccc(C(=O)N2CCN(c3ncccn3)CC2)cc1
> 64.7	CCOC(=O)C1=C(COC(=O)[C@@H](NC(=O)c2cccc(C)c2)C(C)C)NC(=O)NC1C (stereo partly specified)
2.1 (≈ 6.13 µM)	CC(NC(=S)Nc1ccccc1C(F)(F)F)C1CC2CCC1C2 (stereo unspecified)
3.6 (≈ 11.3 µM)	CCc1nc2ccc(C(=O)NCc3ccccc3)cc2nc1CC
44 (≈ 140 µM)	CN(C)c1ccc(C(=S)N2CCCC2)cc1Br
> 36.6	C/C(=N\Nc1nc(C)cc(C)n1)c1ccc(C)o1
> 52.8	CCCNC(=O)[C@@H]1CCCN1C(=O)[C@@H]1Cc2ccccc2CN1.Cl (H-[Tic]-Pro-NHPr)
3.9 (≈ 10.1 µM)	CC(=O)Nc1ccc(SCC(=O)Nc2ccccc2N2CCOCC2)cc1
5.4 (≈ 14.7 µM)	COc1ccc(C(=O)NC2CCN(C(=O)NCc3ccccc3)CC2)cc1
> 45.3	COc1ccc(NC(=O)CSC2=NCCN2)cc1.Cl
22 (≈ 48.8 µM)	O=C(Nc1ccc(S(=O)(=O)NC2=NCCCCC2)cc1)c1ccc(Cl)c([N+](=O)[O-])c1
> 47	O=C(CN1CCN(c2ccccc2)CC1)Nc1ccc(F)cc1
> 43.2	O=C(NC1CCC(O)CC1)c1ccc(Br)o1 (stereo unspecified)
> 49.4	CS(=O)(=O)c1ccc(C(=O)OC2CCOC2=O)cc1[N+](=O)[O-] (stereo unspecified)
> 60.5	Cc1onc(-c2ccccc2)c1C(=O)N(C)CC(=O)Nc1ccc(F)c(F)c1F
> 36.9	O=C1C2CCCN2C(=S)N1Cc1ccccc1 (stereo unspecified)
> 46.6	O=C(CCNS(=O)(=O)c1ccccc1)N1CCCCCC1
35.2 (≈ 115 µM)	C=C(C)C(=O)Nc1ccc2c(c1)OCCOCCOCCO2
38.2	Cl.c1ccc(SCCCCN2CCOCC2)cc1
2.6 (≈ 9.14 µM)	O=C(NCc1ccccc1)NC12CC3CC(CC(C3)C1)C2
0.8 (≈ 2.55 µM)	COc1ccc(NC(=O)c2cc(-c3ccco3)on2)c(OC)c1
9.2 (≈ 38.1 µM)	Cc1ccc(-n2sc3ccccc3c2=O)cc1
